From ChEMBL document CHEMBL1136235, “Synthesis and biological activity of piperazine-based dual MMP-13 and TNF-alpha converting enzyme inhibitors” (Bioorg Med Chem Lett, 2003)

Experiments:
Collagenase 3 = Collagenase 3 (Homo sapiens, UniProt P45452); experiment: In vitro inhibition of matrix metalloprotease-13.
[1] = target: T1, Disintegrin and metalloproteinase domain-containing protein 17 (Homo sapiens, UniProt P78536); experiment: Inhibition of human recombinant tumor necrosis factor-alpha converting enzyme.
T1 sequence (P78536 whole entry, the tested form may be a part): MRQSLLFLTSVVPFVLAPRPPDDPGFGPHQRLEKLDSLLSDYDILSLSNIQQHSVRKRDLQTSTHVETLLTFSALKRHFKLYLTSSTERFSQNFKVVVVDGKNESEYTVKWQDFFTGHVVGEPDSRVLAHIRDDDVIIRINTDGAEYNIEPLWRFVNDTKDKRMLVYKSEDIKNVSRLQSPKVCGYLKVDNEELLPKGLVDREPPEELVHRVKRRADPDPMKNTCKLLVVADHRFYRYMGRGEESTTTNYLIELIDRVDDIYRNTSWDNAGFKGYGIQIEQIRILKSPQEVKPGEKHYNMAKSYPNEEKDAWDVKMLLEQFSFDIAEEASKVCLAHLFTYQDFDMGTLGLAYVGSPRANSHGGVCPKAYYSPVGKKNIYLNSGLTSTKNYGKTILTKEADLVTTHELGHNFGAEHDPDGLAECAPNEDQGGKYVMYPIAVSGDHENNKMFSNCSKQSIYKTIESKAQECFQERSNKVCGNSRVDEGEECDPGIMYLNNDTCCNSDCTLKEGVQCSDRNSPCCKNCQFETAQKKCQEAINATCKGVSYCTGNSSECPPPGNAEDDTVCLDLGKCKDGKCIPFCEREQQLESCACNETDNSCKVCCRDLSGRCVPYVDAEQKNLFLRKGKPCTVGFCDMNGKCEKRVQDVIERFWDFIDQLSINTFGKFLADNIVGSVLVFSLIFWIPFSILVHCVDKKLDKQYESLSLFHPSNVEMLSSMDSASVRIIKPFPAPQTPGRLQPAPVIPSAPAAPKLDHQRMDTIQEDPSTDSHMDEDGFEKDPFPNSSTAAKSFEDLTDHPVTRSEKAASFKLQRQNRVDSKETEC

[2] = target: T1, Disintegrin and metalloproteinase domain-containing protein 17; experiment: Inhibition of Tumor necrosis factor-alpha (TNF-alpha) release in human whole blood; format: functional, tissue-based
Interstitial collagenase = target: T2, Interstitial collagenase (Homo sapiens, UniProt P03956); experiment: In vitro inhibition of matrix metalloprotease-1.
T2 sequence (P03956 whole entry): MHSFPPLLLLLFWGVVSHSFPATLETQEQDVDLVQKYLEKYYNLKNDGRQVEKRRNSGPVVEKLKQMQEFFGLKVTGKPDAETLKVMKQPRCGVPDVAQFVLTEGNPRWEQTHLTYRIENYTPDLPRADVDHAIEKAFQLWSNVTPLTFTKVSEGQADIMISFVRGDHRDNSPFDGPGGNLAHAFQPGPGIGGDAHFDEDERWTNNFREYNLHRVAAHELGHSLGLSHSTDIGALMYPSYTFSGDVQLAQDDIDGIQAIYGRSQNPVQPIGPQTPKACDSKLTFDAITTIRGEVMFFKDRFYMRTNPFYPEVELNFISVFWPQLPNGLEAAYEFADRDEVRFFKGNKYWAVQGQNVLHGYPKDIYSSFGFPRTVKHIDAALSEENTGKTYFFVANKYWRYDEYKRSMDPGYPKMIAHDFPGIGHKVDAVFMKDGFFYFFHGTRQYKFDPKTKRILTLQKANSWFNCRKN

[3] = Half life in rat i.v.; format: ADME, organism-based; conditions: in vivo, iv
[4] = Pharmacokinetic property (Vdss) in rat; format: ADME, organism-based; conditions: in vivo, read-out: Vdss
[5] = (§1) Pharmacokinetic property (Clp) in rat; format: ADME, organism-based; conditions: plasma, read-out: Clp
Rattus norvegicus [6] = organism: Rattus norvegicus; experiment: Concentration required for TNF-alpha production in an acute rat LPS-induced model; format: functional
Rattus norvegicus [7] = experiment: Inhibition of TNF-alpha production in an acute rat LPS-induced model at the dose of 30 mg/kg; format: functional
Rattus norvegicus [8] = organism: Rattus norvegicus; experiment: as §1; format: ADME, organism-based; conditions: in vivo
[9] = Half in rat i.v.; format: ADME, organism-based; conditions: in vivo, iv

## CC(=O)N1CCN(S(=O)(=O)c2ccc(OCc3ccccc3C(F)(F)F)cc2)[C@@H](C(=O)NO)[C@@H]1C
Collagenase 3
  IC50: 127 nM
[1]
  IC50: 11 nM
[2]
  IC50: 2000 nM
Interstitial collagenase
  IC50: 10000 nM

## CC(=O)N1CCN(S(=O)(=O)c2ccc(OCc3ccccc3C)cc2)[C@@H](C(=O)NO)[C@@H]1C
[3]
  half-life: 16.2 min
[4]
  Vd: 0.6 L/kg
[5]
  clearance: 54 mL/min/kg
[1]
  IC50: 6 nM
[2]
  IC50: 1000 nM
Rattus norvegicus [6]
  ED50: 17 mg/kg

## Cc1ccccc1COc1ccc(S(=O)(=O)N2CCN(C)[C@@H](C)[C@@H]2C(=O)NO)cc1
[1]
  IC50: 31 nM
[2]
  IC50: 33000 nM

## Cc1ccccc1COc1ccc(S(=O)(=O)N2CCN(Cc3ccccc3)[C@@H](C)[C@@H]2C(=O)NO)cc1
[1]
  IC50: 68 nM
[2]
  IC50: 33000 nM
Interstitial collagenase
  IC50: 17000 nM

## CC[C@H](C)[C@H](NC(=O)C(CC(C)C)[C@H](C(C)C)N(O)C=O)C(=O)Nc1ccccn1 (stereo partly specified)
Collagenase 3
  IC50: 7 nM
[1]
  IC50: 40 nM
Interstitial collagenase
  IC50: 19 nM

## C#CCOc1ccc(S(=O)(=O)N(C)c2c(C)cc(Br)cc2C(=O)NO)cc1
Collagenase 3
  IC50: 113 nM
Interstitial collagenase
  IC50: 52 nM

## CC(=O)N1CCN(S(=O)(=O)c2ccc(OCc3cccnc3C)cc2)[C@@H](C(=O)NO)[C@@H]1C
Collagenase 3
  IC50: 8 nM
[1]
  IC50: 5 nM
[2]
  IC50: 800 nM
Interstitial collagenase
  IC50: 3400 nM

## Cc1ccccc1COc1ccc(S(=O)(=O)N2CCN[C@@H](C)[C@@H]2C(=O)NO)cc1
[3]
  half-life: 14.4 min
[4]
  Vd: 1.1 L/kg
Collagenase 3
  IC50: 19 nM
[5]
  clearance: 83 mL/min/kg
[2]
  IC50: 2000 nM
Interstitial collagenase
  IC50: 12000 nM
Rattus norvegicus [7]
  inhibition in vivo at 30 mg/kg: 39%

## Cc1ccccc1COc1ccc(S(=O)(=O)N2CCN(C(=O)Nc3ccccc3)[C@@H](C)[C@@H]2C(=O)NO)cc1
[1]
  IC50: 26 nM
[2]
  IC50: 12000 nM
Interstitial collagenase
  IC50: 2200 nM

## Cc1ccccc1COc1ccc(S(=O)(=O)N2CCN(S(C)(=O)=O)[C@@H](C)[C@@H]2C(=O)NO)cc1
[4]
  Vd: 2.1 L/kg
Collagenase 3
  IC50: 4 nM
Rattus norvegicus [8]
  Clp: 98 mL/min/kg
[1]
  IC50: 6 nM
[2]
  IC50: 1000 nM
[9]
  half-life: 12.6 min
Interstitial collagenase
  IC50: 1300 nM
Rattus norvegicus [7]
  inhibition in vivo at 30 mg/kg: 55%

## CCc1ccccc1COc1ccc(S(=O)(=O)N2CCN(C(C)=O)[C@@H](C)[C@@H]2C(=O)NO)cc1
Collagenase 3
  IC50: 40 nM
[1]
  IC50: 7 nM
[2]
  IC50: 600 nM
Interstitial collagenase
  IC50: 6700 nM

## CC(=O)N1CCN(S(=O)(=O)c2ccc(OCc3cncc4ccccc34)cc2)[C@@H](C(=O)NO)[C@@H]1C
Collagenase 3
  IC50: 98 nM
[2]
  IC50: 400 nM
Interstitial collagenase
  IC50: 6400 nM

## COC(=O)N1CCN(S(=O)(=O)c2ccc(OCc3ccccc3C)cc2)[C@@H](C(=O)NO)[C@@H]1C
Collagenase 3
  IC50: 4 nM
[1]
  IC50: 14 nM
[2]
  IC50: 2000 nM
Interstitial collagenase
  IC50: 1500 nM

## Cc1ccc(S(=O)(=O)N2CCN(S(=O)(=O)c3ccc(OCc4ccccc4C)cc3)[C@@H](C(=O)NO)[C@@H]2C)cc1
[1]
  IC50: 32 nM
[2]
  IC50: 26000 nM

## CC(=O)N1CCN(S(=O)(=O)c2ccc(OCc3ccnc4ccccc34)cc2)[C@@H](C(=O)NO)[C@@H]1C
Collagenase 3
  IC50: 17 nM
[2]
  IC50: 300 nM
Interstitial collagenase
  IC50: 830 nM

## CC(=O)N1CCN(S(=O)(=O)c2ccc(OCc3cc(F)cc(F)c3)cc2)[C@@H](C(=O)NO)[C@@H]1C
Collagenase 3
  IC50: 20 nM
[1]
  IC50: 6 nM
[2]
  IC50: 1000 nM
Interstitial collagenase
  IC50: 3800 nM

## CC(=O)N1CCN(S(=O)(=O)c2ccc(OCc3cc(F)ccc3C)cc2)[C@@H](C(=O)NO)[C@@H]1C
Collagenase 3
  IC50: 7 nM
[1]
  IC50: 7 nM
[2]
  IC50: 1000 nM
Interstitial collagenase
  IC50: 1900 nM

## Cc1ccccc1COc1ccc(S(=O)(=O)N2CCN(C(=O)NC(C)C)[C@@H](C)[C@@H]2C(=O)NO)cc1
Collagenase 3
  IC50: 4 nM
[1]
  IC50: 34 nM
[2]
  IC50: 3000 nM
Interstitial collagenase
  IC50: 1400 nM

## CCOC(=O)N1CCN(S(=O)(=O)c2ccc(OCc3ccccc3C)cc2)[C@@H](C(=O)NO)[C@@H]1C
Collagenase 3
  IC50: 6 nM
[1]
  IC50: 28 nM
[2]
  IC50: 3000 nM
Interstitial collagenase
  IC50: 1500 nM

## CC(=O)N1CCN(S(=O)(=O)c2ccc(OCc3ccc(F)cc3)cc2)[C@@H](C(=O)NO)[C@@H]1C
Collagenase 3
  IC50: 3 nM
[1]
  IC50: 6 nM
[2]
  IC50: 2000 nM
Interstitial collagenase
  IC50: 1700 nM

## C[C@@H]1NCCN(S(=O)(=O)c2ccc(OCc3ccccc3)cc2)[C@H]1C(=O)NO
Collagenase 3
  IC50: 11 nM
[2]
  IC50: 18000 nM
Interstitial collagenase
  IC50: 12000 nM
